According to US4129737A, “Process for the preparation of an 8-alkyl-5-oxo-5,8-dihydro-pyrido(2,3-d)pyrimidine-6-carboxylic acid” (priority 1972, dated 1978):
Converted amounts (≈) assume the structure as drawn. Like-named read-outs stand apart in the source and are kept apart here.

Tests used:
Type in all cases: cell-based
[1] = tested on: Staphylococcus 209 P; assay: Minimum inhibitory concentration by agar dilution, Staphylococcus 209 P
Procedure: (§1) (a) Trypticase soya medium (T.S.A.), which is very suitable for culturing the majority of microorganisms; it has the following composition:
(§2) (b) Ordinarily nutrient agar (N.A.), which is less rich in nutrients, corresponds to the following formulation: […]
(§3) Table I gives the minimum inhibitory concentrations (expressed in μg/cm^3) for the various microorganisms tested on each medium.
(§4) The products were tested on three Gram positive microorganisms (1 to 3) […] and on 10 Gram negative microorganisms (4 to 13).
(§5) Table (II) gives the minimum inhibitory concentrations of the compounds of Examples XII to XVI, determined on the agar medium, N.A., and expressed in μg/cm^3.

[2] = tested on: Streptococcus; assay: Minimum inhibitory concentration by agar dilution, Streptococcus Group A; details: 18 h
Procedure: as §1, §2, §3, §4, §5

[3] = tested on: B. subtilis; assay: Minimum inhibitory concentration by agar dilution, B. subtilis; details: Bacillus subtilis
Procedure: as §1, §2, §3, §4, §5

[4] = tested on: Bord. bronchiseptica; assay: Minimum inhibitory concentration by agar dilution, Bord. bronchiseptica; details: Bordetella bronchiseptica
Procedure: as §1, §2, §3, §4, §5

[5] = tested on: B. pyocyaneus A22; assay: Minimum inhibitory concentration by agar dilution, B. pyocyaneus A22; details: Pseudomonas aeruginosa
Procedure: as §1, §2, §3, §4, §5

[6] = tested on: Esch. Coli 95; assay: Minimum inhibitory concentration by agar dilution, Esch. Coli 95; details: Escherichia coli
Procedure: as §1, §2, §3, §4, §5

[7] = tested on: Klebs. pneumoniae; assay: Minimum inhibitory concentration by agar dilution, Klebs. pneumoniae; details: Klebsiella pneumoniae
Procedure: as §1, §2, §3, §4, §5

[8] = tested on: Salm. typhi; assay: Minimum inhibitory concentration by agar dilution, Salm. typhi; details: Salmonella enterica, 18 h
Procedure: as §1, §2, §3, §4, §5

[9] = tested on: Sh. sonnei; assay: Minimum inhibitory concentration by agar dilution, Sh. sonnei; details: Shigella sonnei
Procedure: as §1, §2, §3, §4, §5

[10] = tested on: Pr. vulgaris; assay: Minimum inhibitory concentration by agar dilution, Pr. vulgaris; details: Proteus vulgaris
Procedure: as §1, §2, §3, §4, §5

[11] = tested on: Pr. mirabilis; assay: Minimum inhibitory concentration by agar dilution, Pr. mirabilis; details: Proteus mirabilis
Procedure: as §1, §2, §3, §4, §5

[12] = tested on: Pr. morganii; assay: Minimum inhibitory concentration by agar dilution, Pr. morganii; details: Morganella morganii
Procedure: as §1, §2, §3, §4, §5

[13] = tested on: B. pyocyaneus TUR; assay: Minimum inhibitory concentration by agar dilution, B. pyocyaneus TUR; details: Pseudomonas aeruginosa, 37° C., 18 hours
Procedure: as §1, §2, §3, §4

[14] = tested on: Gram-negative microorganisms; assay: In vitro anti-microbial activity on agar media, overall; details: in vitro
Procedure: as §4

[15] = 18 h, agar medium, N.A., Table II (Staphylococcus 20 P [sic]), read-out: minimum inhibitory concentration
[16] = agar medium, N.A., Table II, read-out: minimum inhibitory concentration
[17] = 18 h, agar medium, N.A., Table II, read-out: minimum inhibitory concentration
[18] = A22, 18 h, agar medium, N.A., Table II, read-out: minimum inhibitory concentration
[19] = read-out: minimum inhibitory concentration
[20] = pH 6.8, read-out: minimum inhibitory concentration (M.I.C.)
[21] = pH 7.3, read-out: minimum inhibitory concentration (M.I.C.)
[22] = N.A. (nutrient agar, pH 6.8), 37° C., 18 hours, Table I, read-out: minimum inhibitory concentration (M.I.C.)
[23] = T.S.A. (trypticase soya medium, pH 7.3), 37° C., 18 hours, read-out: minimum inhibitory concentration (M.I.C.)
[24] = 18 h, pH 7.3, read-out: minimum inhibitory concentration (M.I.C.)
[25] = 18 h, read-out: minimum inhibitory concentration

## C=CCN1CCN(c2ncc3c(=O)c(C(=O)O)cn(CC)c3n2)CC1 [XIV, 2-(4'-Allyl-piperazino)-5-oxo-8-ethyl-5,8-dihydro-pyrido(2,3-d)pyrimidine-6-carboxylic acid]
[1]; [15]
  MIC: 3.1 µg/mL (≈ 9.03 µM)
[2]; [16]
  MIC: 1.6 µg/mL (≈ 4.66 µM)
[3]; [17]
  MIC: 3.1 µg/mL (≈ 9.03 µM)
[4]; [17]
  MIC: 3.1 µg/mL (≈ 9.03 µM)
[5]; [18]
  MIC: 25 µg/mL (≈ 72.8 µM)
[6]; [17]
  MIC: 50 µg/mL (≈ 146 µM)
[7]; [17]
  MIC: 0.4 µg/mL (≈ 1.16 µM)
[8]; [19]
  MIC: 3.1 µg/mL (≈ 9.03 µM)
[9]; [17]
  MIC: 0.8 µg/mL (≈ 2.33 µM)
[10]; [17]
  MIC: 3.1 µg/mL (≈ 9.03 µM)
[11]; [17]
  MIC: 6.2 µg/mL (≈ 18.1 µM)
[12]; [17]
  MIC: 1.6 µg/mL (≈ 4.66 µM)

## CCn1cc(C(=O)O)c(=O)c2cnc(N3CCC(O)CC3)nc21 [IV, 2-(4'-Hydroxy-piperidino)-5-oxo-8-ethyl-5,8-dihydropyrido(2,3-d)pyrimidine-6-carboxylic acid]
[1]; Staphylococcus, N.A. (nutrient agar, pH 6.8), 37° C., 18 hours, Table I, read-out: minimum inhibitory concentration (M.I.C.)
  MIC: 1.6 µg/mL (≈ 5.03 µM)
[1]; Staphylococcus, T.S.A. (trypticase soya medium, pH 7.3), 37° C., 18 hours, read-out: minimum inhibitory concentration (M.I.C.)
  MIC: 50 µg/mL (≈ 157 µM)
[2]; [20]
  MIC: 12.5 µg/mL (≈ 39.3 µM)
[2]; [21]
  MIC: 12.5 µg/mL (≈ 39.3 µM)
[3]; [22]
  MIC: 0.8 µg/mL (≈ 2.51 µM)
[3]; [23]
  MIC: 3.1 µg/mL (≈ 9.74 µM)
[4]; [22]
  MIC: 100 µg/mL (≈ 314 µM)
[4]; [23]
  MIC: > 100 µg/mL
[5]; A22, N.A. (nutrient agar, pH 6.8), 37° C., 18 hours, Table I, read-out: minimum inhibitory concentration (M.I.C.)
  MIC: 100 µg/mL (≈ 314 µM)
[5]; A22, T.S.A. (trypticase soya medium, pH 7.3), 37° C., 18 hours, read-out: minimum inhibitory concentration (M.I.C.)
  MIC: > 100 µg/mL
[13]; N.A. (nutrient agar, pH 6.8), Table I
  MIC: 100 µg/mL (≈ 314 µM)
[13]; T.S.A. (trypticase soya medium, pH 7.3), read-out: minimum inhibitory concentration (M.I.C.)
  MIC: > 100 µg/mL
[6]; [24]
  MIC: 12.5 µg/mL (≈ 39.3 µM)
[6]; [22]
  MIC: 6.2 µg/mL (≈ 19.5 µM)
[7]; [22]
  MIC: 0.4 µg/mL (≈ 1.26 µM)
[7]; [23]
  MIC: 0.8 µg/mL (≈ 2.51 µM)
[8]; [20]
  MIC: 6.2 µg/mL (≈ 19.5 µM)
[8]; [21]
  MIC: 12.5 µg/mL (≈ 39.3 µM)
[9]; [22]
  MIC: 3.1 µg/mL (≈ 9.74 µM)
[9]; [23]
  MIC: 12.5 µg/mL (≈ 39.3 µM)
[10]; [24]
  MIC: 12.5 µg/mL (≈ 39.3 µM)
[10]; [22]
  MIC: 3.1 µg/mL (≈ 9.74 µM)
[11]; 18 h, pH 6.8, read-out: minimum inhibitory concentration (M.I.C.)
  MIC: 12.5 µg/mL (≈ 39.3 µM)
[11]; [23]
  MIC: 25 µg/mL (≈ 78.5 µM)
[12]; [22]
  MIC: 0.4 µg/mL (≈ 1.26 µM)
[12]; [23]
  MIC: 0.8 µg/mL (≈ 2.51 µM)
[14]
  activity against Gram-negative microorganisms: particularly active against Gram-negative microorganisms

## CCn1cc(C(=O)O)c(=O)c2cnc(N3CCN(Cc4ccc(Cl)cc4)CC3)nc21 [XV, 2-(4'-p-Chlorobenzyl-piperazino)-5-oxo-8-ethyl-5,8-dihydro-pyrido(2,3-d)pyrimidine-6-carboxylic acid]
[1]; [15]
  MIC: 0.8 µg/mL (≈ 1.87 µM)
[2]; [16]
  MIC: 1.6 µg/mL (≈ 3.74 µM)
[3]; [17]
  MIC: 1.6 µg/mL (≈ 3.74 µM)
[4]; [17]
  MIC: 3.1 µg/mL (≈ 7.24 µM)
[5]; [18]
  MIC: 50 µg/mL (≈ 117 µM)
[6]; [17]
  MIC: 100 µg/mL (≈ 234 µM)
[7]; [17]
  MIC: 0.8 µg/mL (≈ 1.87 µM)
[8]; [19]
  MIC: 12.5 µg/mL (≈ 29.2 µM)
[9]; [17]
  MIC: 1.6 µg/mL (≈ 3.74 µM)
[10]; [25]
  MIC: 12.5 µg/mL (≈ 29.2 µM)
[11]; [25]
  MIC: 12.5 µg/mL (≈ 29.2 µM)
[12]; [17]
  MIC: 6.2 µg/mL (≈ 14.5 µM)
